Article PMC5609913, “Structure based design, synthesis and activity studies of small hybrid molecules as HDAC and G9a dual inhibitors” (Oncotarget, 2017)

target: T1, Mouse histone methyltransferase G9a (969-1263) (Mus musculus, UniProt Q9Z148); assay: MALDI-TOF methylation study of G9a enzymatic activity (H3 peptide, SAM); type: biochemical; conditions: Supplementary Table 1; inhibitor 5 μM, 30 min; average of 3 values
T1 construct: The 6His-sumo mG9a (969-1263) protein was purified using the following procedure; 6His-sumo (N, cleaved yes); made in house; host or cells: Escherichia coli BL21 (DE3)
T1 sequence (Q9Z148 969-1263): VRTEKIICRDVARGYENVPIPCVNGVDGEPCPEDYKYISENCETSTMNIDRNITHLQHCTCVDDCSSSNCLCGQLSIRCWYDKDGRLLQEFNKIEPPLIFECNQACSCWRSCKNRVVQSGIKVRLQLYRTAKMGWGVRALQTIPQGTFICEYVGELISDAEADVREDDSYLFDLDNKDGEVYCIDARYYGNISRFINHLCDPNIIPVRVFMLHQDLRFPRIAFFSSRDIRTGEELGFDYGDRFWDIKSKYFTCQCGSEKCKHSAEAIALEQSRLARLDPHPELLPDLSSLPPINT
Description: Figure 3 compounds were synthesized from the commercially available starting material 1. An initial displacement reaction using a primary amine was used to introduce the C4 selective substitution, with the second displacement to introduce the linker at the C2 position following the microwave assisted reaction previously reported. Boc-protected ethylene diamine was treated with compound 2 at 160°C in a microwave for 10 min to yield product 3 with excellent yield. Afterward, the amine 3 was deprotected with TFA/DCM, and the free amine was treated with corresponding monomethyl esters (carbon chain 2-6) in the presence of coupling reagent EDCI and HOBt for about 8 hours to produce mono methyl ester substituted at the C2 position. The ester compounds further treated with hydroxylamine in water to get the corresponding hydroxamic acid derivatives, which were purified using reverse phase flash chromatography to obtain compounds 4-7 and 4a-7a in good yield. Synthesis of compounds in Figure 4 requires the C6 demethoxy core, and this was synthesized according to the reported procedure to yield 10 [45]. […] Compounds with the HDAC pharmacophore at the C4 position (Figure 2B) were synthesized from the starting material 1. […] A parallel synthesis and testing strategy were used in establishing the primary SAR, with the clear rationalization of the structure and activity at each stage we could reduce the synthetic targets. Initially, we evaluated the G9a potential after the introduction of HDAC pharmacophore. A biochemical assay using MALDI-TOF was used to visualize the effects of the synthesized compounds on G9a enzymatic activity, we carried out a biochemical reaction involving target enzyme G9a, methyl donor SAM and substrate H3 peptide at a concentration of 400 nM, 10 μM and 5 μM respectively.
Mouse histone methyltransferase G9a (969-1263) cDNA was amplified from the cDNA of BALB/c mouse thymus, and the fragment was sub-cloned into a vector with a 6His-sumo tag. The mouse G9a (mG9a) was expressed in Escherichia coli BL21 (DE3) by the addition of 1 mM isopropyl-1-thio-D-galactopyranoside (IPTG) and incubated overnight at 16°C.
The in vitro inhibition of G9a by the synthesized compounds were measured by MALDI-TOF mass spectrum (Bruker MALDI TOF/TOF Analyzer). 400 nM purified G9a, 5 μM synthesized histone H3 (1-21) and 10 μM non-radioactive S-adenosyl methionine (Sigma) were added in reaction buffer (50 mM HEPES pH 8.0, 5 μg/ml BSA and 0.1% β-Mercaptoethanol) with or without inhibitors (5 μM). The reaction was incubated at room temperature for 30 min, and stopped by TFA. 1 μl of the sample was mixed with CHCA matrix and m/z peaks were obtained at reflection positive mode. The results of mass spectrum were analyzed using the Bruker flex analysis software, a detailed description of data processing is provided as supplementary information (S3).
[…]
MALDI spectrums were collected using Bruker flex % conversion to product is also C, from this to get the control software and analyzed by flex analysis. After %maximal activity (%MA), C was compared to the % labelling each cluster peaks of H3K9Me0, H3K9Me1 conversion when no inhibitor was used (D). and H3K9Me2 for all of the tested concentrations, area Finally % inhibition was found by subtracting under the cluster (AUC) were extracted by using the same %MA from 100 […]
flex analysis software. % abundance of each peak was Example: % methylation levels and % inhibition calculated by following formula, when used 5 μM compound 14
A = % Abundance of (H3K9Me0) = area of A = 13.09
B = % Abundance of (H3K9Me1) = area of % conversion when no inhibitor was used D = 84.43 H3K9Me1/ (area of H3K9Me0+area of H3K9Me1 + area (average of six measurements) […]

Point of comparison: `COc1ccc2c(NC3CCN(C)CC3)nc(NCCNC(=O)CCCCC(=O)NO)nc2c1` [Compound 15a, N1-hydroxy-N6-(2-((7-methoxy-4-((1-methylpiperidin-4-yl)amino)quinazolin-2-yl)amino)ethyl)adipamide], inhibition at 5 µM 47.9 ± 12.9%. Against it:
- COc1ccc2c(NC3CCN(Cc4ccccc4)CC3)nc(NCCNC(=O)CCCCC(=O)NO)nc2c1 [Compound 15, N1-(2-((4-((1-benzylpiperidin-4-yl)amino)-7-methoxyquinazolin-2-yl)amino)ethyl)-N6-hydroxyadipamide] — within error, 69.1 ± 24.5%
- COc1cc2nc(NCCNC(=O)CCCCCC(=O)NO)nc(NC3CCN(Cc4ccccc4)CC3)c2cc1OC [Compound 5b, N1-(2-((4-((1-benzylpiperidin-4-yl)amino)-6,7-dimethoxyquinazolin-2-yl)amino)ethyl)-N7-hydroxyheptanediamide] — within error, 38 ± 4.99%
- COc1cc2nc(NCCNC(=O)CCCC(=O)NO)nc(NC3CCN(C)CC3)c2cc1OC [Compound 7, N1-(2-((6,7-dimethoxy-4-((1-methylpiperidin-4-yl)amino)quinazolin-2-yl)amino)ethyl)-N5-hydroxyglutaramide] — within error, 19.6 ± 20.9%
- COc1ccc2c(NCCNC(=O)CCCCCC(=O)NO)nc(N3CCCN(C)CC3)nc2c1 [Compound 22, N1-hydroxy-N7-(2-((7-methoxy-2-(4-methyl-1,4-diazepan-1-yl)quinazolin-4-yl)amino)ethyl)heptanediamide] — within error, 40.3 ± 15.3%
- COc1cc2nc(N3CCCN(C)CC3)nc(NC3CCN(C(=O)CCCCCCC(=O)NO)CC3)c2cc1OC [Compound 19, 8-(4-((6,7-dimethoxy-2-(4-methyl-1,4-diazepan-1-yl)quinazolin-4-yl)amino)piperidin-1-yl)-N-hydroxy-8-oxooctanamide] — within error, 10.7 ± 25.9%
- COc1cc2nc(N3CCCN(C)CC3)nc(NC3CCN(C(=O)CCCCCC(=O)NO)CC3)c2cc1OC [Compound 20, 7-(4-((6,7-dimethoxy-2-(4-methyl-1,4-diazepan-1-yl)quinazolin-4-yl)amino)piperidin-1-yl)-N-hydroxy-7-oxoheptanamide] — lower, 14.6 ± 15.8%
- COc1cc2nc(NCCNC(=O)CCCC(=O)NO)nc(NC3CCN(C(C)C)CC3)c2cc1OC [Compound 7a, N1-hydroxy-N5-(2-((4-((1-isopropylpiperidin-4-yl)amino)-6,7-dimethoxyquinazolin-2-yl)amino)ethyl)glutaramide] — lower, 15 ± 15.7%
- COc1ccc2c(NC3CCN(C)CC3)nc(NCCNC(=O)CCCC(=O)NO)nc2c1 [Compound 16a, N1-hydroxy-N5-(2-((7-methoxy-4-((1-methylpiperidin-4-yl)amino)quinazolin-2-yl)amino)ethyl)glutaramide] — within error, 40.3 ± 13.8%
- COc1ccc2c(NC3CCN(Cc4ccccc4)CC3)nc(NCCNC(=O)CCCCCCC(=O)NO)nc2c1 [Compound 13, N1-(2-((4-((1-benzylpiperidin-4-yl)amino)-7-methoxyquinazolin-2-yl)amino)ethyl)-N8-hydroxyoctanediamide] — within error, 24.9 ± 17.4%
- COc1cc2nc(NCCNC(=O)CCCCCCC(=O)NO)nc(NC3CCN(C)CC3)c2cc1OC [Compound 4, N1-(2-((6,7-dimethoxy-4-((1-methylpiperidin-4-yl)amino)quinazolin-2-yl)amino)ethyl)-N8-hydroxyoctanediamide] — within error, 27 ± 12.2%
- COc1ccc2c(NC3CCN(Cc4ccccc4)CC3)nc(NCCNC(=O)CCCCCC(=O)NO)nc2c1 [Compound 14, N1-(2-((4-((1-benzylpiperidin-4-yl)amino)-7-methoxyquinazolin-2-yl)amino)ethyl)-N7-hydroxyheptanediamide] — within error, 29.7 ± 23.3%
- COc1cc2nc(NCCNC(=O)CCCCCCC(=O)NO)nc(NC3CCN(C(C)C)CC3)c2cc1OC [Compound 4a, N1-hydroxy-N8-(2-((4-((1-isopropylpiperidin-4-yl)amino)-6,7-dimethoxyquinazolin-2-yl)amino)ethyl)octanediamide] — lower, 11.2 ± 3.68%
- COc1cc2nc(NCCNC(=O)CCCCCC(=O)NO)nc(NC3CCN(C(C)C)CC3)c2cc1OC [Compound 5a, N1-hydroxy-N7-(2-((4-((1-isopropylpiperidin-4-yl)amino)-6,7-dimethoxyquinazolin-2-yl)amino)ethyl)heptanediamide] — within error, 47.5 ± 9.32%
- COc1ccc2c(NC3CCN(Cc4ccccc4)CC3)nc(NCCNC(=O)CCCC(=O)NO)nc2c1 [Compound 16, N1-(2-((4-((1-benzylpiperidin-4-yl)amino)-7-methoxyquinazolin-2-yl)amino)ethyl)-N5-hydroxyglutaramide] — within error, 40.3 ± 13.8%

same assay, conditions: worked example, single spectrum; 5 μM compound

Compound `COc1ccc2c(NC3CCN(Cc4ccccc4)CC3)nc(NCCNC(=O)CCCCCC(=O)NO)nc2c1` [Compound 14, N1-(2-((4-((1-benzylpiperidin-4-yl)amino)-7-methoxyquinazolin-2-yl)amino)ethyl)-N7-hydroxyheptanediamide] has an inhibition at 5 µM of 69.5%.

same assay, conditions: worked example; 5 μM compound

With `COc1ccc2c(NC3CCN(Cc4ccccc4)CC3)nc(NCCNC(=O)CCCCCC(=O)NO)nc2c1` [Compound 14, N1-(2-((4-((1-benzylpiperidin-4-yl)amino)-7-methoxyquinazolin-2-yl)amino)ethyl)-N7-hydroxyheptanediamide] the “A = % Abundance of (H3K9Me0)” value was 13.09%.

With `COc1ccc2c(NC3CCN(Cc4ccccc4)CC3)nc(NCCNC(=O)CCCCCC(=O)NO)nc2c1` [Compound 14, N1-(2-((4-((1-benzylpiperidin-4-yl)amino)-7-methoxyquinazolin-2-yl)amino)ethyl)-N7-hydroxyheptanediamide] the “B = % Abundance of (H3K9Me1)” value was 61.18%.

In the case of `COc1ccc2c(NC3CCN(Cc4ccccc4)CC3)nc(NCCNC(=O)CCCCCC(=O)NO)nc2c1` [Compound 14, N1-(2-((4-((1-benzylpiperidin-4-yl)amino)-7-methoxyquinazolin-2-yl)amino)ethyl)-N7-hydroxyheptanediamide], the “C = % Abundance of (H3K9Me2) (% conversion to product)” value is reported as 25.72%.

same assay, conditions: worked example; 5 μM compound; relative to no inhibitor (84.43); read-out: % maximal activity (%MA)

`COc1ccc2c(NC3CCN(Cc4ccccc4)CC3)nc(NCCNC(=O)CCCCCC(=O)NO)nc2c1` [Compound 14, N1-(2-((4-((1-benzylpiperidin-4-yl)amino)-7-methoxyquinazolin-2-yl)amino)ethyl)-N7-hydroxyheptanediamide] was tested, and the activity at 5 µM was 30.5%.
